SMILES strings stand for the structures. Residues, ends and D or L forms follow the SMILES beside them.

Sequence of Plasminogen (P00747 97-580 limits assumed): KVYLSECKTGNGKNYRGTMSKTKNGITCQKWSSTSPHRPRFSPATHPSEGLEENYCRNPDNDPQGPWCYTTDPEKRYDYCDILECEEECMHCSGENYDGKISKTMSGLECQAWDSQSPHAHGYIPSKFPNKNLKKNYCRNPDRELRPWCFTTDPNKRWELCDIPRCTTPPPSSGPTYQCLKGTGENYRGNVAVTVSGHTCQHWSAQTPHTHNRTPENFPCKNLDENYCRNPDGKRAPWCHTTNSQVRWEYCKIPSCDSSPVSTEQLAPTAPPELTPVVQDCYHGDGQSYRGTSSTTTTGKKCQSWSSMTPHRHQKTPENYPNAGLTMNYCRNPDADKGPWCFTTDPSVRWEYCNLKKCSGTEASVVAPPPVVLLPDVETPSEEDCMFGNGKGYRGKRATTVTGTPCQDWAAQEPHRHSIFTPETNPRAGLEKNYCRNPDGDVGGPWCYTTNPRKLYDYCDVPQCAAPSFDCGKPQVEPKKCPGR
Sequence of Plasminogen (P00747 581-810 limits assumed): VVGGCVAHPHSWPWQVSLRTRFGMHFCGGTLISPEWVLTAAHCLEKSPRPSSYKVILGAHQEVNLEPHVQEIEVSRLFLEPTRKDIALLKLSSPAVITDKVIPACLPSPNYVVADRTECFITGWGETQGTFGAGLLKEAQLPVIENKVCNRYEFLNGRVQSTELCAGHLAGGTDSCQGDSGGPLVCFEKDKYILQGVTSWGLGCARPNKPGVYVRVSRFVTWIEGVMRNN

The assay addresses Plasminogen (Homo sapiens, UniProt P00747). The assay can be described thus: Inhibition of human plasmin using Ac-RM(O2)YR-pNA as substrate after 30 mins.
The term Ki denotes the dissociation constant of the complex between target and ligand, obtained from inhibition or displacement. Take `CC[C@H](C)[C@@H]1NC(=O)[C@@H]2CCCN2C(=O)[C@@H]2CCCN2C(=O)[C@H](CCCCN)NC(=O)[C@H](CO)NC(=O)[C@H](CCCCN)NC(=O)[C@H](Cc2ccccc2)NC(=O)[C@@H]2CSSC[C@H](NC1=O)C(=O)N[C@@H](Cc1ccccc1)C(=O)N1CCC[C@H]1C(=O)N[C@@H](CC(=O)O)C(=O)NCC(=O)N[C@@H](CCCNC(=N)N)C(=O)N2` (HELM PEPTIDE1{C.F.K.S.K.P.P.I.C.F.P.D.G.R}$PEPTIDE1,PEPTIDE1,1:R3-9:R3|PEPTIDE1,PEPTIDE1,1:R1-14:R2$$$V2.0): affinity was put at a Ki of 0.61 nM. The same measure for `CC[C@H](C)[C@@H]1NC(=O)[C@@H]2CCCN2C(=O)[C@@H]2CCCN2C(=O)[C@H](CCCNC(=N)N)NC(=O)[C@H](CO)NC(=O)[C@H](CCCCN)NC(=O)[C@H]([C@@H](C)O)NC(=O)[C@@H]2CSSC[C@H](NC1=O)C(=O)N[C@@H](Cc1ccccc1)C(=O)N1CCC[C@H]1C(=O)N[C@@H](CC(=O)O)C(=O)NCC(=O)N[C@@H](CCCNC(=N)N)C(=O)N2` (HELM PEPTIDE1{C.F.P.D.G.R.C.T.K.S.R.P.P.I}$PEPTIDE1,PEPTIDE1,1:R3-7:R3|PEPTIDE1,PEPTIDE1,1:R1-14:R2$$$V2.0): 2 nM; for `CC[C@H](C)[C@@H]1NC(=O)[C@@H]2CCCN2C(=O)[C@@H]2CCCN2C(=O)[C@H]([C@@H](C)CC)NC(=O)[C@H](CO)NC(=O)[C@H](CCCNC(=N)N)NC(=O)[C@H]([C@@H](C)O)NC(=O)[C@@H]2CSSC[C@H](NC1=O)C(=O)N[C@@H](Cc1ccccc1)C(=O)N1CCC[C@H]1C(=O)N[C@@H](CC(=O)O)C(=O)NCC(=O)N[C@@H](CCCNC(=N)N)C(=O)N2` (HELM PEPTIDE1{C.F.P.D.G.R.C.T.R.S.I.P.P.I}$PEPTIDE1,PEPTIDE1,1:R3-7:R3|PEPTIDE1,PEPTIDE1,1:R1-14:R2$$$V2.0): 120 nM; for `CC[C@H](C)[C@@H]1NC(=O)[C@@H]2CCCN2C(=O)[C@@H]2CCCN2C(=O)[C@H](CCCCN)NC(=O)[C@H](CO)NC(=O)[C@H](CCCCN)NC(=O)[C@H](Cc2c[nH]c3ccccc23)NC(=O)[C@@H]2CSSC[C@H](NC1=O)C(=O)N[C@@H](Cc1ccccc1)C(=O)N1CCC[C@H]1C(=O)N[C@@H](CC(=O)O)C(=O)NCC(=O)N[C@@H](CCCNC(=N)N)C(=O)N2` (HELM PEPTIDE1{C.F.P.D.G.R.C.W.K.S.K.P.P.I}$PEPTIDE1,PEPTIDE1,1:R3-7:R3|PEPTIDE1,PEPTIDE1,1:R1-14:R2$$$V2.0): 0.66 nM. The molecule `N=C(N)NCCC[C@@H]1NC(=O)CNC(=O)[C@H](CC(=O)O)NC(=O)[C@@H]2CCCN2C(=O)[C@H](Cc2ccccc2)NC(=O)[C@@H]2CSSC[C@H](NC1=O)C(=O)N[C@@H](Cc1ccc(O)cc1)C(=O)N[C@@H](CCCCN)C(=O)N[C@@H](CO)C(=O)N[C@@H](CCCCN)C(=O)N1CCC[C@H]1C(=O)N1CCC[C@H]1C(=O)N[C@@H](CCCCN)C(=O)N2` (HELM PEPTIDE1{C.F.P.D.G.R.C.Y.K.S.K.P.P.K}$PEPTIDE1,PEPTIDE1,1:R3-7:R3|PEPTIDE1,PEPTIDE1,1:R1-14:R2$$$V2.0) came in with an inhibition constant Ki of 2.5 nM. As for `N=C(N)NCCC[C@@H]1NC(=O)CNC(=O)[C@H](CC(=O)O)NC(=O)[C@@H]2CCCN2C(=O)[C@H](Cc2ccccc2)NC(=O)[C@@H]2CSSC[C@H](NC1=O)C(=O)N[C@@H](Cc1ccc(O)cc1)C(=O)N[C@@H](CCCCN)C(=O)N[C@@H](CO)C(=O)N[C@@H](CCCCN)C(=O)N1CCC[C@H]1C(=O)N1CCC[C@H]1C(=O)N[C@@H](CC(N)=O)C(=O)N2` (HELM PEPTIDE1{C.F.P.D.G.R.C.Y.K.S.K.P.P.N}$PEPTIDE1,PEPTIDE1,1:R3-7:R3|PEPTIDE1,PEPTIDE1,1:R1-14:R2$$$V2.0), affinity was put at a Ki of 0.66 nM. The same measure for `N=C(N)NCCC[C@@H]1NC(=O)CNC(=O)[C@H](CC(=O)O)NC(=O)[C@@H]2CCCN2C(=O)[C@H](Cc2ccccc2)NC(=O)[C@@H]2CSSC[C@H](NC1=O)C(=O)N[C@@H](Cc1ccc(O)cc1)C(=O)N[C@@H](CCCCN)C(=O)N[C@@H](CO)C(=O)N[C@@H](CCCCN)C(=O)N1CCC[C@H]1C(=O)N1CCC[C@H]1C(=O)N[C@@H](CCC(N)=O)C(=O)N2` (HELM PEPTIDE1{C.F.P.D.G.R.C.Y.K.S.K.P.P.Q}$PEPTIDE1,PEPTIDE1,1:R3-7:R3|PEPTIDE1,PEPTIDE1,1:R1-14:R2$$$V2.0): 1.8 nM; for `N=C(N)NCCC[C@@H]1NC(=O)CNC(=O)[C@H](CC(=O)O)NC(=O)[C@@H]2CCCN2C(=O)[C@H](Cc2ccccc2)NC(=O)[C@@H]2CSSC[C@H](NC1=O)C(=O)N[C@@H](Cc1ccc(O)cc1)C(=O)N[C@@H](CCCCN)C(=O)N[C@@H](CO)C(=O)N[C@@H](CCCCN)C(=O)N1CCC[C@H]1C(=O)N1CCC[C@H]1C(=O)N[C@@H](CCCNC(=N)N)C(=O)N2` (HELM PEPTIDE1{C.F.P.D.G.R.C.Y.K.S.K.P.P.R}$PEPTIDE1,PEPTIDE1,1:R3-7:R3|PEPTIDE1,PEPTIDE1,1:R1-14:R2$$$V2.0): 4.7 nM.

On to `CC[C@H](C)[C@@H]1NC(=O)[C@@H]2CCCN2C(=O)[C@@H]2CCCN2C(=O)[C@H](CCCCN)NC(=O)[C@H](CO)NC(=O)[C@H](CCCNC(=N)N)NC(=O)[C@H](Cc2ccc(O)cc2)NC(=O)[C@@H]2CSSC[C@H](NC1=O)C(=O)N[C@@H](Cc1ccccc1)C(=O)N1CCC[C@H]1C(=O)N[C@@H](CC(=O)O)C(=O)NCC(=O)N[C@@H](CCCNC(=N)N)C(=O)N2` (HELM PEPTIDE1{C.F.P.D.G.R.C.Y.R.S.K.P.P.I}$PEPTIDE1,PEPTIDE1,1:R3-7:R3|PEPTIDE1,PEPTIDE1,1:R1-14:R2$$$V2.0), for which the Ki is 8.3 nM. In turn, `CC[C@H](C)[C@@H]1NC(=O)[C@@H]2CCCN2C(=O)[C@@H]2CCCN2C(=O)[C@H](CCCNC(=N)N)NC(=O)[C@H](CO)NC(=O)[C@H](CCCNC(=N)N)NC(=O)[C@H](Cc2ccc(O)cc2)NC(=O)[C@@H]2CSSC[C@H](NC1=O)C(=O)N[C@@H](Cc1ccccc1)C(=O)N1CCC[C@H]1C(=O)N[C@@H](CC(=O)O)C(=O)NCC(=O)N[C@@H](CCCNC(=N)N)C(=O)N2` (HELM PEPTIDE1{C.F.P.D.G.R.C.Y.R.S.R.P.P.I}$PEPTIDE1,PEPTIDE1,1:R3-7:R3|PEPTIDE1,PEPTIDE1,1:R1-14:R2$$$V2.0) came in with a Ki of 16 nM.

For the molecule `CC[C@H](C)[C@@H]1NC(=O)[C@@H]2CCCN2C(=O)[C@@H]2CCCN2C(=O)[C@H](CCCNC(=N)N)NC(=O)[C@H](CO)NC(=O)[C@H](CCCCN)NC(=O)[C@H](Cc2ccc(O)cc2)NC(=O)[C@@H]2CSSC[C@H](NC1=O)C(=O)N[C@@H](Cc1ccccc1)C(=O)N1CCC[C@H]1C(=O)N[C@@H](CCC(=O)O)C(=O)NCC(=O)NC(CCCCNC(=N)N)C(=O)N2` (some centres not stated) (HELM PEPTIDE1{C.F.P.E.G.[N=C(N)NCCCCC(N[*:1])C(=O)[*:2]].C.Y.K.S.R.P.P.I}$PEPTIDE1,PEPTIDE1,1:R3-7:R3|PEPTIDE1,PEPTIDE1,1:R1-14:R2$$$V2.0), the Ki is 1.1 nM.

`CC[C@H](C)[C@@H]1NC(=O)[C@@H]2CCCN2C(=O)[C@@H]2CCCN2C(=O)[C@H](CCCNC(=N)N)NC(=O)[C@H](CO)NC(=O)[C@H](CCCCN)NC(=O)[C@H](Cc2ccc(O)cc2)NC(=O)[C@@H]2CSSC[C@H](NC1=O)C(=O)N[C@@H](Cc1ccccc1)C(=O)N1CCC[C@H]1C(=O)N[C@@H](CC(N)=O)C(=O)NCC(=O)N[C@@H](CCCNC(=N)N)C(=O)N2` (HELM PEPTIDE1{C.F.P.N.G.R.C.Y.K.S.R.P.P.I}$PEPTIDE1,PEPTIDE1,1:R3-7:R3|PEPTIDE1,PEPTIDE1,1:R1-14:R2$$$V2.0): the Ki was 1.2 nM.
